PMC8766756, “Insights on Cancer Cell Inhibition, Subcellular Activities, and Kinase Profile of Phenylacetamides Pending 1H-Imidazol-5-One Variants” (Frontiers in Pharmacology, 2022)
pIC50: −log10 of the molar value. “Also recorded” adds a separate entry of the source.

Experiments:
[1] = Stability in human liver microsomes; format: in vitro ADME; details: 37°C, t1/2
Procedure: The clearance of KIM-161 in MLM or HLM was determined at 37°C as previously described ([Yang et al., 2007]). Both MLM and HLM were obtained from Merck KGaA (Darmstadt, Germany), Cat. No. M9441 (MLM) and M0317 (HLM). The assays were conducted in triplicate in 96-well deep polypropylene plates. KIM-161 was incubated with pooled liver microsomes from male CD-1 mice (Life Technologies, Grand Island, NY), tetrasodium NADPH and magnesium chloride for 60 min at 37°C with gentle shaking. At five time points, the reaction mixture aliquots were transferred to 96-shallow well stop plates on ice containing acetonitrile with 0.1 µM propafenone. […] The standard curves for the test compound were generated using five concentrations in triplicate that were processed as above but with zero incubation time. The stop plates were centrifuged at 2000g for 10 min, and then, the supernatant aliquots were transferred to a Waters Aquity® UPLC 700 µL 96-well sample plate with cap mat (Waters, Milford, MA). The amount of the compound remaining in the supernatant was quantified by LC/MS/MS using a Waters Xevo TQ MS (electrospray positive mode) coupled to a Waters Aquity® UPLC (BEH column, C18). Propafenone was used as the internal standard. GraphPad® Prism v.5.04 was used for nonlinear fitting of time course data to generate t1/2 values.

[2] = Binding to mouse plasma proteins (equilibrium dialysis); format: in vitro ADME; details: pH 7.4, CD-1 mouse plasma, equilibrium dialysis 22 h, read-out: Mouse plasma protein binding (% free at 37°C)
Procedure: The equilibrium dialysis method for determining plasma protein binding was performed as previously described using 96-well dialyzer plates with a molecular weight cutoff of 5K (Harvard Apparatus, Holliston, MA) and a dual-plate rotator set to maximum speed (Harvard Apparatus, Holliston, MA) located in a 37°C incubator with a 10% CO2 atmospheric environment. The assays were run in triplicate. KIM-161 was added to CD-1 mouse plasma (Innovative Research, Novi, MI, sodium heparin added as anticoagulant; pH adjusted to 7.4 with 2N HCl on the day of use) in DMSO (final DMSO concentration 0.4%) to give a 10 µM final concentration. The drug/plasma mixture and buffer (Dulbecco's PBS 1X without calcium and magnesium, Mediatech, Inc., Herndon, VA) were placed in their respective sides; the wells were capped; and the plate was placed in the rotator and allowed to dialyze for 22 h. Following dialysis, aliquots of the buffer and plasma mixture were removed and mixed with aliquots of the opposite matrix in 96-well deep plates. The concentrations of the analytes from each side of the dialysis plate were determined by LC/MS/MS on a Waters Xevo TQ instrument as described above using positive electrospray ionization. […] The fraction unbound was calculated by dividing the drug concentration in the buffer side of the dialysis plate by the drug concentration in the plasma side.

[3] = biological target: T1, human cytochrome P450 2C9 (Homo sapiens, UniProt P11712); experiment: Inhibition assay of human CYP450 enzymes; format: in vitro ADME; details: fluorescent substrate
T1 construct: purchased Fisher Scientific, Waltham, MA; host or cells: insect cells (Supersomes)
T1 sequence (P11712 whole entry): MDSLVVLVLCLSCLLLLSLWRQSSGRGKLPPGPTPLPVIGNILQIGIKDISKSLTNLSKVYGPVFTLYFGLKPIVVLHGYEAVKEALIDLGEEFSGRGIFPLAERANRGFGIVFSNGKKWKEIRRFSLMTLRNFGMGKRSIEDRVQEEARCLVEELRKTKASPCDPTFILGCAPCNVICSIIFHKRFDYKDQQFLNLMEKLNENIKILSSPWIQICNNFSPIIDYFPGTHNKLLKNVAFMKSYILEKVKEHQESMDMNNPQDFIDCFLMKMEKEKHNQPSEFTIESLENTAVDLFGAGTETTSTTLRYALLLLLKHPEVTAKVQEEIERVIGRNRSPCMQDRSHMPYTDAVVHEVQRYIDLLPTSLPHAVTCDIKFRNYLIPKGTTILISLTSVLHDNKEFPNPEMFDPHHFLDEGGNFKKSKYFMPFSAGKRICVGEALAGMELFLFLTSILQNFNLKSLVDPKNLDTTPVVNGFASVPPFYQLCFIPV
Procedure: (§1) KIM-161 was assessed for its ability to inhibit the three major human CYP450 enzymes: 3A4, 2D6, and 2C9. The assays were run in triplicate. The expressed enzymes in insect Supersomes (Fisher Scientific, Waltham, MA) were used to minimize nonspecific binding and membrane partitioning issues ([McMasters et al., 2007]). The 3A4 assay uses testosterone as a substrate, and the analysis was performed by LC/MS/MS on a Waters Xevo TQ instrument as described above, using positive electrospray ionization. The assay acceptance criterion was 20% for all standards and 25% for the LLOQ. The 2D6 and 2C9 assays use fluorescent substrates (3-[2-(N,N-diethylamino)ethyl]-7-methoxy-4-methylcoumarin for 2D6; 7-methoxy-4-(trifluromethyl)coumarin for 2C9) and were analyzed on an Envision plate reader. GraphPad® Prism v.5.04 was used for nonlinear fitting of data to generate IC50 values.

[4] = biological target: T2, human cytochrome P450 2D6 (Homo sapiens, UniProt P10635); experiment: Inhibition assay of human CYP450 enzymes; format: in vitro ADME; details: fluorescent substrate
T2 construct: purchased Fisher Scientific, Waltham, MA; host or cells: insect cells (Supersomes)
T2 sequence (P10635 whole entry): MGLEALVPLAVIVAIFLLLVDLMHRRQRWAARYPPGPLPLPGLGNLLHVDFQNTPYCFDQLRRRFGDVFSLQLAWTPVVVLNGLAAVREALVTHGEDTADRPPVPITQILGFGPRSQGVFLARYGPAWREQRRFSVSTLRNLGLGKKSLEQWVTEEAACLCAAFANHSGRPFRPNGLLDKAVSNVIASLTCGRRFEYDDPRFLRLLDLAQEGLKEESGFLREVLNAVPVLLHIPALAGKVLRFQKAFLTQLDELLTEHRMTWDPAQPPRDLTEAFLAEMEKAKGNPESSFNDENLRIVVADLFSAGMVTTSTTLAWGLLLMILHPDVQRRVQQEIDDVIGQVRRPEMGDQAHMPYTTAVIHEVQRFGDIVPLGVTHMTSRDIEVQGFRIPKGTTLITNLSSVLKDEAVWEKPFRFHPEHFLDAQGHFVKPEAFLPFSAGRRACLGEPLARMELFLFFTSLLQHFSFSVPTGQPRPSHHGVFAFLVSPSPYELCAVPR
Procedure: as §1

[5] = biological target: T3, human cytochrome P450 3A4 (Homo sapiens, UniProt P08684); experiment: Inhibition assay of human CYP450 enzymes; format: in vitro ADME; details: testosterone substrate
T3 construct: purchased Fisher Scientific, Waltham, MA; host or cells: insect cells (Supersomes)
T3 sequence (P08684 whole entry): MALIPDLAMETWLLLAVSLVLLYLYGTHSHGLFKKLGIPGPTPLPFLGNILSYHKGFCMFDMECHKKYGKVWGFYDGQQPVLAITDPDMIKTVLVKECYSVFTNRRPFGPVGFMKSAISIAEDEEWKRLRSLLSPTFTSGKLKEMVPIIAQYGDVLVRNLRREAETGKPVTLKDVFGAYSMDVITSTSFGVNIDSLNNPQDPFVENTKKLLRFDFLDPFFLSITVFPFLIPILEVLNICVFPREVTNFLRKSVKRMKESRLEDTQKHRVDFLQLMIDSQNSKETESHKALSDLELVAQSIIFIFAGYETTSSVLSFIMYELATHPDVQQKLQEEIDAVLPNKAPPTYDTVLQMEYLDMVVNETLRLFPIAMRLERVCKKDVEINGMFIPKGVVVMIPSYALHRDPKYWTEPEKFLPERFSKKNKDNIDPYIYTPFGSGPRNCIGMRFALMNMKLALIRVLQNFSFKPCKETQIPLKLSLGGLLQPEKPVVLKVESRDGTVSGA
Procedure: as §1

[6] = Reactivity with GSH (LC/MS); format: physicochemical; details: 37°C
Text: Because KIM-161 contains α,β-enone moiety, it was investigated for its reactivity with glutathione (GSH), an important cellular component for maintaining the desired redox balance ([Aquilano et al., 2014]).
GSH and solvents were purchased from Sigma-Aldrich. The LC/MS system is composed of an Agilent 1200 HPLC system, a solvent delivery module, a quaternary pump, an autosampler, and a column compartment (Agilent Technology, Germany). The column effluent was connected to an Agilent 6320 Ion Trap-ESI-MS. The column heater was set to 25 ± 2°C. The control of the HPLC system and data processing were performed using ChemStation (Rev. B.01.03 SR2-204) and 6300 Series Trap Control version 6.2 Build No. 62.24 (Bruker Daltonik GmbH). The analytes were separated using an Agilent Zorbax Extend-C18 column (80Å, 150 mm length × 4.6 mm, i.d., 5 μm) and Agilent-Zorbax Extend-C18 pre-column (Agilent Technologies, Palo Alto, CA, USA). The general MS adjustments were set as follows: capillary voltage, 4000 V; nebulizer, 35 psi; drying gas, 12 L/min; desolvation temperature, 350°C; ion charge control smart target, 150,000; and max. accumulation time, 150 ms. The Auto-MSn positive mode was applied. The mobile system was isocratic elution using 55% acetonitrile and 45% water containing 0.1% formic acid (w/v). […]

## COc1ccc(/C=C2\N=C(C)N(c3ccc(CC(=O)NCc4ccccc4)cc3)C2=O)cc1 [Compound 4c, (Z)-N-Benzyl-2-(4-(4-(4-methoxybenzylidene)-2-methyl-5-oxo-4,5-dihydro-1H-imidazol-1-yl)phenyl)acetamide]
[1]
  HLM stability: 22.9 min
[2]
  fraction unbound at 22 h, 10 µM: 0.05
[3]
  pIC50: ≤ 5.00
[4]
  pIC50: ≤ 5.00
[5]
  pIC50: ≤ 5.00
[6]; pH 7.5, up to 48 h, LC/MS, listed as KIM-161
  Reactivity with GSH: did not show any significant reaction with GSH; also recorded: could not react with GSH; also recorded: No reaction
[6]; after 48 h with GSH
  unreacted compound (UV spectrum): > 98%
